Experimental data from ChEMBL document CHEMBL1201862, “PubChem BioAssay data set” (2004).
Activity calls are given as the source filed them.

Experiments:
[1] = target: Dual specificity protein kinase CLK1 (Homo sapiens, UniProt P49759); experiment: CLK1 kinase inhibitors, off-target check, dose response, selectivity assay for Dyrk1A inhibitor project, biochemical, cherry-picked samples (AID 588811)
[2] = target: T1, Ubiquitin-conjugating enzyme E2 N (Homo sapiens, UniProt P61088); format: functional
T1 sequence (P61088 whole entry): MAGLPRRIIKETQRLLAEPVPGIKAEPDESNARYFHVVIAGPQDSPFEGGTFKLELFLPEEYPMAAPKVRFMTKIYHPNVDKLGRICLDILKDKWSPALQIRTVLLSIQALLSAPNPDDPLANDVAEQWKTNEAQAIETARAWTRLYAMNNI

[3] = target: T2, Streptokinase A (Streptococcus pyogenes serotype M1, UniProt P10520); experiment: S. pyogenes streptokinase expression inhibitors, potency, dose response, plasminogen activation absorbance, OD405 (AID 1914); format: functional, Streptococcus pyogenes M1 GAS;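 further: secreted streptokinase activity via plasminogen activation per viability signal from cell pellet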
T2 sequence (P10520 whole entry): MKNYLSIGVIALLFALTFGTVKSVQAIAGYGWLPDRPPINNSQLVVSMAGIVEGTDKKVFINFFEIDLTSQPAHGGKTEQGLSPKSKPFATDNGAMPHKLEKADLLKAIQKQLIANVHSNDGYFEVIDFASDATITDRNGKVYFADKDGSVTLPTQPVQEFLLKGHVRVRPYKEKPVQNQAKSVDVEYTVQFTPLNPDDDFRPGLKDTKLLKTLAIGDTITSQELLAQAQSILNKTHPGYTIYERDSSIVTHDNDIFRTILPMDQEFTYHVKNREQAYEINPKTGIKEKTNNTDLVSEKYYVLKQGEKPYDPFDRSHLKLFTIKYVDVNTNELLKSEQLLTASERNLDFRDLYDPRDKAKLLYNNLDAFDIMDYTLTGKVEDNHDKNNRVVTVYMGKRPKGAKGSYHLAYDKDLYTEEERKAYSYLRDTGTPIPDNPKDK

[4] = inhibitors of firefly luciferase expression or activity, dose response, H4 neuroglioma cells, luminescence (AID 1990); format: functional, cell-based
[5] = system: Streptococcus sp. 'group A'; experiment: growth inhibition of control SK(-) GAS strain, dose response, counter-screen for streptokinase expression inhibitor project, luminescence, kanamycin, BacTiterGlo, confirmation (AID 1900); format: functional, organism-based
[6] = HepG2 cell cytotoxicity, dose response, cytotoxicity control for Shn3 inhibitor project, CellTiter-Glo, cherry-picked (AID 624134); format: functional, cell-based
[7] = target: T3, Rac GTPase-activating protein 1 (Homo sapiens, UniProt Q9H0H5); experiment: MgcRacGAP GTPase-activating activity inhibitors, confirmation, biochemical, ADP Hunter fluorescence, primary and confirmatory (AID 624330); format: functional
T3 sequence (Q9H0H5 whole entry): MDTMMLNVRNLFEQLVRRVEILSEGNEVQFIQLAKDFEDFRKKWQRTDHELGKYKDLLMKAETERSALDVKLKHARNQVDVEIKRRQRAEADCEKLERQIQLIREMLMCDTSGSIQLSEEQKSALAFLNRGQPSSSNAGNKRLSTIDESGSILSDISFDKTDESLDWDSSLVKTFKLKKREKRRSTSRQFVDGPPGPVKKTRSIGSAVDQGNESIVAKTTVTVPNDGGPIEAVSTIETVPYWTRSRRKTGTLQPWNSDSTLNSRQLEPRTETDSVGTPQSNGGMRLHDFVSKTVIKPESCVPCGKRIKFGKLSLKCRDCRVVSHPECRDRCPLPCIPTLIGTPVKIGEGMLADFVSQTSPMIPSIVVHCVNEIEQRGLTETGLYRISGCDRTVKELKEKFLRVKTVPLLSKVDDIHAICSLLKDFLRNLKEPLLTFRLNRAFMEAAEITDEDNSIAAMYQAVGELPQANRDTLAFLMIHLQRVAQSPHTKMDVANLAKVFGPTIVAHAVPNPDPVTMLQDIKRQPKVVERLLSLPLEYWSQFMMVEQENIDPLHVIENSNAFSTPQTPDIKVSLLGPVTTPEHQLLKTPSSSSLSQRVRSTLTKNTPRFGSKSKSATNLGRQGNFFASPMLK

[8] = system: Streptococcus; experiment: Group A Streptococcus viability loss, dose response, counter-screen for streptokinase expression inhibitor project, luminescence, BacTiterGlo (AID 1915); format: functional, organism-based;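 further: potency for reduction of bacterial viability or growth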
[9] = Shn3 3'UTR reporter inhibitors, dose response, cell-based, Clone20 osteoblasts, firefly luciferase, cherry-picked (AID 624132); format: functional;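 further: firefly luciferase luminescence from reporter carrying the Shn3 3'UTR in osteoblasts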
[10] = target: Dual specificity tyrosine-phosphorylation-regulated kinase 1A (Rattus norvegicus, UniProt Q63470); format: biochemical, Homo sapiens
[11] = target: T1, Ubiquitin-conjugating enzyme E2 N; format: functional; remark: listed apart in the source
[12] = system: HEK293; experiment: NOD1 signaling inhibitors, primary screen, cell-based, luminescence, uHTS (AID 1578); format: functional; settings: Homo sapiens
[13] = microbe, parasite or virus in culture; format: functional; settings: Mycobacterium tuberculosis
[14] = system: HEK293; experiment: cells; format: functional, cell-based; settings: Homo sapiens
[15] = system: HEK293; experiment: cells; format: functional, cell-based; settings: Homo sapiens; remark: listed apart in the source
[16] = system: HEK293; experiment: inhibitors of LMP1-driven NF-kB reporter, dose response, cell-based, HEK293, luciferase, cherry-pick (AID 588343); format: functional, Homo sapiens; settings: Homo sapiens, HEK293
[17] = target: T4, Bcl-2-related protein A1 (Mus musculus, UniProt Q07440); format: functional;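 further: confirmatory dose–response counterscreen on Bfl-1, used to check hits from a UBC13 polyubiquitin inhibitor campaign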
T4 sequence (Q07440 whole entry): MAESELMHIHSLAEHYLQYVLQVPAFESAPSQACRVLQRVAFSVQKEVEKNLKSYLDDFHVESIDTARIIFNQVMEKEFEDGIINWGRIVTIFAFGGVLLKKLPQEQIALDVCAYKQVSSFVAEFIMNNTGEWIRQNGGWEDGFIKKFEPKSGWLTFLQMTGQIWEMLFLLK

[18] = target: Hepatocyte nuclear factor 4-alpha (Homo sapiens, UniProt P41235); format: functional, cell-based;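 further: biochemical luminescence-based dose-response counterscreen measuring inhibition of HNF4 dimerization, run alongside a screen for blockers of ABHD5–perilipin-5 interaction; split luciferase complementation of HNF4 fusion proteins in cell lysate measuring dimerization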
[19] = HeLa cell cytotoxicity, dose response, cytotoxicity control for MgcRacGAP inhibitor project (AID 624300); format: functional
[20] = control 3'UTR Renilla luciferase suppression, dose response, counter-screen for Shn3 inhibitor project, cell-based, Clone20-Shn3RL, cherry-picked (AID 624133); format: functional
[21] = target: T5, Replicative DNA helicase DnaB (Mycobacterium tuberculosis, UniProt P9WMR3); experiment: DnaB intein splicing inhibitors, dose response, biochemical, cell-free fluorescence (AID 449749); format: functional
T5 sequence (P9WMR3 whole entry): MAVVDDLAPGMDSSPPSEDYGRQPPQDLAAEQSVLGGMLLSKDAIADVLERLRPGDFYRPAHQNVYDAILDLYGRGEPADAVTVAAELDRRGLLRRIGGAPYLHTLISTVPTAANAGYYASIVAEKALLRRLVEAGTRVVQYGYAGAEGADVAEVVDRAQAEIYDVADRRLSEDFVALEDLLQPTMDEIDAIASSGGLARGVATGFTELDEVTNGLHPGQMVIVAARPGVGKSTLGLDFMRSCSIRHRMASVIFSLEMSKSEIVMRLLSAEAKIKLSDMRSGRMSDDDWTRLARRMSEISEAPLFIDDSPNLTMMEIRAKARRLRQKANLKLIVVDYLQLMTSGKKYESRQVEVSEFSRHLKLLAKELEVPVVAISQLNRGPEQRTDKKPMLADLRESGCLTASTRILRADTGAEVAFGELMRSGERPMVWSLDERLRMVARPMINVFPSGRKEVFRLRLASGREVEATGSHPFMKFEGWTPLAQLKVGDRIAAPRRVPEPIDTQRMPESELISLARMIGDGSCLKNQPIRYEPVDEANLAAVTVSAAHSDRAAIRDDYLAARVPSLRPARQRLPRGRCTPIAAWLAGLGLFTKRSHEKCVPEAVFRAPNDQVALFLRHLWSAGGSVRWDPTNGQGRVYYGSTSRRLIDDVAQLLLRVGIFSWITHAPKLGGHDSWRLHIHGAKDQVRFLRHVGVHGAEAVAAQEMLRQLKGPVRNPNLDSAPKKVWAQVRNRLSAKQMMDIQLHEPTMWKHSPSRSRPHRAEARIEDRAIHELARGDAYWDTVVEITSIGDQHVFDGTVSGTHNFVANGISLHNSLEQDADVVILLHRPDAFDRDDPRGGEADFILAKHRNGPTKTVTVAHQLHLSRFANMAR

[22] = target: Apoptotic protease-activating factor 1 (Homo sapiens, UniProt O14727); format: functional
[23] = target: T6, Protein RecA (Mycobacterium tuberculosis, UniProt P9WHJ3); experiment: Fluorescence Cell-Free Homogeneous Dose Retest to Identify Inhibitors of RecA-Intein Splicing Activity. [Related pubchem assays (depositor defined):AID2097, AID2223, AID489010, AID492950]; format: functional
T6 sequence (P9WHJ3 whole entry): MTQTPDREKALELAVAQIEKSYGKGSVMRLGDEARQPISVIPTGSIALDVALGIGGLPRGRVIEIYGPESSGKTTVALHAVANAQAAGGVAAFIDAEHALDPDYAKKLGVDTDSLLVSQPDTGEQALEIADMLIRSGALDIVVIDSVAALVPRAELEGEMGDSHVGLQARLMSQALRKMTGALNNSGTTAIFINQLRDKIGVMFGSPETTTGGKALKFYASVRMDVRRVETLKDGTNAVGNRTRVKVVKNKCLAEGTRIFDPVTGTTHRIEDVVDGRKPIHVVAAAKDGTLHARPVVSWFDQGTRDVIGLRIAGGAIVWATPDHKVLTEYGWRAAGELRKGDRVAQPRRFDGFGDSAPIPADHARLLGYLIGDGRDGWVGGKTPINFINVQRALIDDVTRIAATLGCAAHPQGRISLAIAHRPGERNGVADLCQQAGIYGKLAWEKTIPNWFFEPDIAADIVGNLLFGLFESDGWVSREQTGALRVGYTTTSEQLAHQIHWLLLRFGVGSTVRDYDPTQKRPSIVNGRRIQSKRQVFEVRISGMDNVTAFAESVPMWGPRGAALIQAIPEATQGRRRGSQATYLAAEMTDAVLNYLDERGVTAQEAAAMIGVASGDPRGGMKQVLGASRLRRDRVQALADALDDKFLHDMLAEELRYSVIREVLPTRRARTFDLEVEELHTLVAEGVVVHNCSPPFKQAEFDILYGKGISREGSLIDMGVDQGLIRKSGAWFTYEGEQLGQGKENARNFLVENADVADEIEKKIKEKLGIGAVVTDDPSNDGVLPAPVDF

[24] = target: Nonstructural protein 1 (Influenza A virus, UniProt Q194T2); format: functional, Influenza A virus (A/California/07/2009(H1N1))
[25] = cells; format: functional, cell-based
[26] = target: T7, Type-1 angiotensin II receptor (Homo sapiens, UniProt P30556); experiment: AT1 receptor antagonists, dose response, selectivity assay for APJ receptor antagonist project, cell-based, uHTS hits (AID 463214); format: functional;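 further: antagonist potency against angiotensin II stimulated AT1 response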
T7 sequence (P30556 whole entry): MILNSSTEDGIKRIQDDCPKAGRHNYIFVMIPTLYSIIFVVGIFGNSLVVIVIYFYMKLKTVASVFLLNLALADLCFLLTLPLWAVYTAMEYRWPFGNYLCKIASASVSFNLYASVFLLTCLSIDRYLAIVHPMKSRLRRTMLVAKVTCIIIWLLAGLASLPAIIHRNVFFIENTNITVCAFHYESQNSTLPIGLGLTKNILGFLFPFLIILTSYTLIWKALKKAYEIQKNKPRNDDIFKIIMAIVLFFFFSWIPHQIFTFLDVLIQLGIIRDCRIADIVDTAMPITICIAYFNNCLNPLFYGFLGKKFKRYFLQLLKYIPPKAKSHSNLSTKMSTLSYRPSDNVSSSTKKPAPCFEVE

[27] = Luminescence Cell-Based Dose Response HTS to Identify Inhibitors of 5'UTR Stem-Loop Driven Prion Protein mRNA Translation in H4 Neuroglioblastoma Cells. [Related pubchem assays: 1827 (Project Summary), 1813 (Primary HTS)]; format: functional
[28] = target: Beta-galactosidase (Escherichia coli, UniProt Q8VNN2); experiment: PubChem AID 485352; format: functional
[29] = system: INS1; experiment: beta cell apoptosis inhibitors, cytokine rescue, dose response, luminescence, retest (AID 449756); format: functional, cell-based; settings: Rattus norvegicus;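 further: cell death triggered by IL-1 beta plus TNF-alpha plus IFN-gamma mixture; protective hits raise ATP signal compared with cytokine alone wells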
[30] = inhibitors of SNCA 5'UTR-driven reporter translation, confirmation, H4 neuroglioma cells, luminescence (AID 1988); format: functional, cell-based
[31] = cells; format: functional, cell-based; remark: listed apart in the source

Sequence of Nonstructural protein 1 (Q194T2 whole entry): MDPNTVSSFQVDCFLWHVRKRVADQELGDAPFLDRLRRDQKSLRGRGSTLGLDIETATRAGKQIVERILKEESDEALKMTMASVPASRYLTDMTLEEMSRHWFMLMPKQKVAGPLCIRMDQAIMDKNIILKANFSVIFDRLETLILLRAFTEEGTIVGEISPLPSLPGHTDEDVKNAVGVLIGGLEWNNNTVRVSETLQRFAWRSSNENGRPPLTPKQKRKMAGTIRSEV
Sequence of Apoptotic protease-activating factor 1 (O14727 whole entry): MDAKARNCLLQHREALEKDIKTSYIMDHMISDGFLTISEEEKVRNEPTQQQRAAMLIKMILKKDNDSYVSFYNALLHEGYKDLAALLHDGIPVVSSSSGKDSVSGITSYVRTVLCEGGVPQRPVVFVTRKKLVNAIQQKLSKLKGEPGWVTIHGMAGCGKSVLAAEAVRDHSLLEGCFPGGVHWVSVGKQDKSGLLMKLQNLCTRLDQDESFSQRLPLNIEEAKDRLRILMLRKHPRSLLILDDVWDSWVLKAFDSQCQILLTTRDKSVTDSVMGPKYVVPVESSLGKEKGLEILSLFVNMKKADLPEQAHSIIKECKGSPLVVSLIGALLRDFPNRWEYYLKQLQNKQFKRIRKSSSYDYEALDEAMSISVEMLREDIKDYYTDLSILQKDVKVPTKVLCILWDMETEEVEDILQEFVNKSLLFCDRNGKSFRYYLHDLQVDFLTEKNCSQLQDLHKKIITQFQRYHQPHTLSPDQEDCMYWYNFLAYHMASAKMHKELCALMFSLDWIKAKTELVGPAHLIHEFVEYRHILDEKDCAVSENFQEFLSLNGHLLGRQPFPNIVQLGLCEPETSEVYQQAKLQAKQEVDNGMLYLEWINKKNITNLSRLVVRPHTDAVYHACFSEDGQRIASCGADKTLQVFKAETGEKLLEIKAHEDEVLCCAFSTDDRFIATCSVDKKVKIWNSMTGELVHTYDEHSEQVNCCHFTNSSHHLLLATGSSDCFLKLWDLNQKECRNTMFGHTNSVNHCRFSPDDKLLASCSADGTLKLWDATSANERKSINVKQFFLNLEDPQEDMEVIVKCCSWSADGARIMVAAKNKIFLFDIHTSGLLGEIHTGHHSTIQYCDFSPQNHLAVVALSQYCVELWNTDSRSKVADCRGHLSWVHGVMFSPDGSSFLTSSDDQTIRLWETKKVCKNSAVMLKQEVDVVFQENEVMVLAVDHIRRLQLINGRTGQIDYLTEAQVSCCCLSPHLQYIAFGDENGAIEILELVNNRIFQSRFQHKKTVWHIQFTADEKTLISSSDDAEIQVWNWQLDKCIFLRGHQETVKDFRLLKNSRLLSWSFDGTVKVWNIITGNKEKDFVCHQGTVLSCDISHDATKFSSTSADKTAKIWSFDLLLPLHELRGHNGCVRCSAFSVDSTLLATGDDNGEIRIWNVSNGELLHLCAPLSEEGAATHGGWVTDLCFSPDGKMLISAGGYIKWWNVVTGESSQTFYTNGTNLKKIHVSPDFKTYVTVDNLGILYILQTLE
Sequence of Beta-galactosidase (Q8VNN2 whole entry): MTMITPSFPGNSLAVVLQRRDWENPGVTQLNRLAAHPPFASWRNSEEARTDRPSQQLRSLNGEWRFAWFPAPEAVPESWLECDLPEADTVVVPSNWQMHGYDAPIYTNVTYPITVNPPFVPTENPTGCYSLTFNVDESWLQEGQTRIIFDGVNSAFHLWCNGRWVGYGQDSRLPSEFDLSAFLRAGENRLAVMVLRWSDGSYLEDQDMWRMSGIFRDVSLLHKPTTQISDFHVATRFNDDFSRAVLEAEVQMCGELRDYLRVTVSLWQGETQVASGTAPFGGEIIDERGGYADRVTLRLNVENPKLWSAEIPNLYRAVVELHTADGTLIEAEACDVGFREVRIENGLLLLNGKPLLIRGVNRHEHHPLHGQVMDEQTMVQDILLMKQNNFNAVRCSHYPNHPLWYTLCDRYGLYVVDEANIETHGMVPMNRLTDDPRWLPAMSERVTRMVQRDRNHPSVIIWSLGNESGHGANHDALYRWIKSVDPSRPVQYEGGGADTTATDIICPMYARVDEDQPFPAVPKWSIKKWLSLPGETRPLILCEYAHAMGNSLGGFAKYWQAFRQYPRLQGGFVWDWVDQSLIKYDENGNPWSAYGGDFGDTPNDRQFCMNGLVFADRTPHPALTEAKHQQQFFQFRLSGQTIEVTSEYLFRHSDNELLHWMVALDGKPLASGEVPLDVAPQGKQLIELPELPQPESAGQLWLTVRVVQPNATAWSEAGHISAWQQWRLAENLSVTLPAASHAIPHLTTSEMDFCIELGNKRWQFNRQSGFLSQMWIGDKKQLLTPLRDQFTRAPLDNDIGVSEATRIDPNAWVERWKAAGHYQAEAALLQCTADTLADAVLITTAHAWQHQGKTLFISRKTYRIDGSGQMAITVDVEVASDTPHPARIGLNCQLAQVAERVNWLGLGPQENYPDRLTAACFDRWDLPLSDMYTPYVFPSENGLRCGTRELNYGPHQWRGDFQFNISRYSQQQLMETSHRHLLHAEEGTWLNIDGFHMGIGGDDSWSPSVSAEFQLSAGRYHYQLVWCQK
Sequence of Hepatocyte nuclear factor 4-alpha (P41235 whole entry, the tested form may be a part): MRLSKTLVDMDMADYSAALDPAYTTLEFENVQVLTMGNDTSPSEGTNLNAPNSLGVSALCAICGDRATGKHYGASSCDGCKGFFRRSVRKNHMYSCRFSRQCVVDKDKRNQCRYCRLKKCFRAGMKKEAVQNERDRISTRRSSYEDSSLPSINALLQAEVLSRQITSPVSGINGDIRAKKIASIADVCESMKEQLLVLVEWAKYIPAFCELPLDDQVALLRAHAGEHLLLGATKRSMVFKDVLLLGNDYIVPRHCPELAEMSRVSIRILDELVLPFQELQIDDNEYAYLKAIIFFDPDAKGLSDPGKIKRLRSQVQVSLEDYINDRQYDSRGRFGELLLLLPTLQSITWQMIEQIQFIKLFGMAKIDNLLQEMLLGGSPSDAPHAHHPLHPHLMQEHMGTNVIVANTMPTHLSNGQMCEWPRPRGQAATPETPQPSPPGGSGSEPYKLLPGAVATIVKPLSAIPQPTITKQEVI
Sequence of Dual specificity protein kinase CLK1 (P49759 whole entry): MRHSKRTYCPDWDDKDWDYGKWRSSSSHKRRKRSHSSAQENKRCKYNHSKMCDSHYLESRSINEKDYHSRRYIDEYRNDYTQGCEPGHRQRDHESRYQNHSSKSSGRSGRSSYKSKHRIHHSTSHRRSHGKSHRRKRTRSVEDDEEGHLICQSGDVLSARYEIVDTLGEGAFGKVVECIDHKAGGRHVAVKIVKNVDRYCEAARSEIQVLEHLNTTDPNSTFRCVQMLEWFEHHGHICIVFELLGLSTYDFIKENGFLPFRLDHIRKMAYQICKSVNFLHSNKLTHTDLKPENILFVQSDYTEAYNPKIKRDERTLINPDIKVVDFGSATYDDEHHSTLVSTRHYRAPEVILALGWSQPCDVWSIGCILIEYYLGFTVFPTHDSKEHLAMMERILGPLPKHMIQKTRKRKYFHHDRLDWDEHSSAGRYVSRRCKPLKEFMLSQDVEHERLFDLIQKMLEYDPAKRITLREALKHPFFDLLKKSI

CCN1CCN(Cc2ccc(NC(=O)c3ccc(C)c(/C=C/c4cnc(Nc5cc(N6CCNCC6)nc(C)n5)cn4)c3)cc2C(F)(F)F)CC1
active: AC50 [1] 1.99 µM | IC50 [2] 11.1 µM | EC50 [3] 86.5 µM | EC50 [5] 6.36 µM | AC50 [6] 19.6 µM | IC50 [7] 41 µM | AC50 [9] 9.56 µM | AC50 [10] 12.8 µM | IC50 [11] 9.4 µM | EC50 [12] 7.23 µM | CC50 [13] 6.89 µM | AC50 [16] 0.725 µM | IC50 [18] 5.88 µM | CC50 [19] 21.6 µM | AC50 [20] 27.6 µM
inconclusive: EC50 [4] 0.424 µM
inactive: IC50 [14] > 20 µM | IC50 [15] > 20 µM | IC50 [17] > 20 µM
> 150 µM (not active): EC50 [8]

Cc1nn(-c2ccccc2)c(O)c1/C=N/NC(=O)c1ccc(O)cc1O
active: AC50 [21] 2.5 µM | IC50 [22] 5.15 µM | EC50 [23] 3.13 µM | IC50 [24] 3.09 µM

Cc1ncc(CO)c(/C=N/Nc2ccc(C(F)(F)F)cn2)c1O
> 350 µM (not active): EC50 [25]
inactive: EC50 [28] > 40 µM
28.7 µM (not active): IC50 [26]
active: EC50 [4] 5.4 µM | EC50 [27] 1.01 µM | AC50 [10] 5.06 µM | AC50 [29] 0.944 µM | EC50 [30] 0.907 µM | IC50 [24] 7.34 µM | EC50 [31] 8.1 µM
